Data as given in the NIST ThermoML archive (doi:10.1016/j.jct.2013.04.021).
Numbers after ± are expanded uncertainties.

Test: xn = mol fraction of the nth substance listed
Conditions: 101 kPa, Liquid; for mass density: Vibrating tube method; for speed of sound: fixed-path interferometer; for viscosity: Capillary tube (Ostwald / Ubbelohde) method

CCCCOCCO [2-butoxyethan-1-ol] + CCCCCCCCCCO
Conditions | mass density [kg/m3] | speed of sound [m/s] | viscosity [mPa·s]
293.15 K, x1 = 0.0563 | 832.457 ± 0.24 | 1392 ± 1.6 | –
293.15 K, x1 = 0.1024 | 834.521 ± 0.24 | 1388.2 ± 1.6 | –
293.15 K, x1 = 0.1544 | 836.95 ± 0.24 | 1383.8 ± 1.6 | –
293.15 K, x1 = 0.2049 | 839.424 ± 0.24 | 1379.5 ± 1.6 | –
293.15 K, x1 = 0.2531 | 841.903 ± 0.24 | 1374.8 ± 1.6 | –
293.15 K, x1 = 0.3066 | 844.775 ± 0.24 | 1369.9 ± 1.6 | –
293.15 K, x1 = 0.4028 | 850.363 ± 0.24 | 1360.7 ± 1.6 | –
293.15 K, x1 = 0.5033 | 856.773 ± 0.24 | 1351.5 ± 1.6 | –
293.15 K, x1 = 0.6031 | 863.803 ± 0.24 | 1343.5 ± 1.6 | –
293.15 K, x1 = 0.7009 | 871.448 ± 0.24 | 1337.1 ± 1.6 | –
293.15 K, x1 = 0.8043 | 880.396 ± 0.24 | 1331.2 ± 1.6 | –
293.15 K, x1 = 0.8532 | 884.962 ± 0.24 | 1328.7 ± 1.6 | –
293.15 K, x1 = 0.8996 | 889.528 ± 0.24 | 1326.3 ± 1.6 | –
293.15 K, x1 = 0.9447 | 894.239 ± 0.24 | 1324.5 ± 1.6 | –
298.15 K, x1 = 0.0563 | 829 ± 0.24 | 1374.9 ± 1.6 | 10.7 ± 0.24
298.15 K, x1 = 0.1024 | 831.148 ± 0.24 | 1371.1 ± 1.6 | 9.884 ± 0.22
298.15 K, x1 = 0.1544 | 833.643 ± 0.24 | 1366.8 ± 1.6 | 9.125 ± 0.2
298.15 K, x1 = 0.2049 | 836.177 ± 0.24 | 1362.6 ± 1.6 | 8.425 ± 0.19
298.15 K, x1 = 0.2531 | 838.694 ± 0.24 | 1358.3 ± 1.6 | 7.84 ± 0.17
298.15 K, x1 = 0.3066 | 841.628 ± 0.24 | 1353.7 ± 1.6 | 7.29 ± 0.16
298.15 K, x1 = 0.4028 | 847.26 ± 0.24 | 1344.9 ± 1.6 | 6.351 ± 0.14
298.15 K, x1 = 0.5033 | 853.675 ± 0.24 | 1336.1 ± 1.6 | 5.491 ± 0.12
298.15 K, x1 = 0.6031 | 860.637 ± 0.24 | 1328.2 ± 1.6 | 4.852 ± 0.11
298.15 K, x1 = 0.7009 | 868.128 ± 0.24 | 1321.1 ± 1.5 | 4.26 ± 0.094
298.15 K, x1 = 0.8043 | 876.828 ± 0.24 | 1314.9 ± 1.5 | 3.68 ± 0.081
298.15 K, x1 = 0.8532 | 881.288 ± 0.24 | 1312.6 ± 1.5 | 3.446 ± 0.076
298.15 K, x1 = 0.8996 | 885.737 ± 0.24 | 1310.2 ± 1.5 | 3.261 ± 0.072
298.15 K, x1 = 0.9447 | 890.317 ± 0.24 | 1308.3 ± 1.5 | 3.107 ± 0.068
303.15 K, x1 = 0.0563 | 825.535 ± 0.24 | 1358.1 ± 1.6 | 8.765 ± 0.2
303.15 K, x1 = 0.1024 | 827.625 ± 0.24 | 1354.4 ± 1.6 | 8.155 ± 0.18
303.15 K, x1 = 0.1544 | 830.09 ± 0.24 | 1350.1 ± 1.6 | 7.554 ± 0.17
303.15 K, x1 = 0.2049 | 832.6 ± 0.24 | 1345.9 ± 1.6 | 7.026 ± 0.16
303.15 K, x1 = 0.2531 | 835.09 ± 0.24 | 1341.7 ± 1.6 | 6.577 ± 0.15
303.15 K, x1 = 0.3066 | 837.986 ± 0.24 | 1337.1 ± 1.6 | 6.114 ± 0.14
303.15 K, x1 = 0.4028 | 843.566 ± 0.24 | 1328.9 ± 1.6 | 5.33 ± 0.12
303.15 K, x1 = 0.5033 | 849.927 ± 0.24 | 1320.8 ± 1.5 | 4.683 ± 0.1
303.15 K, x1 = 0.6031 | 856.84 ± 0.24 | 1313.2 ± 1.5 | 4.089 ± 0.09
303.15 K, x1 = 0.7009 | 864.279 ± 0.24 | 1306.3 ± 1.5 | 3.638 ± 0.08
303.15 K, x1 = 0.8043 | 872.98 ± 0.24 | 1299.7 ± 1.5 | 3.162 ± 0.069
303.15 K, x1 = 0.8532 | 877.42 ± 0.24 | 1296.7 ± 1.5 | 2.979 ± 0.065
303.15 K, x1 = 0.8996 | 881.86 ± 0.24 | 1294.2 ± 1.5 | 2.814 ± 0.062
303.15 K, x1 = 0.9447 | 886.371 ± 0.24 | 1291.7 ± 1.5 | 2.671 ± 0.059
308.15 K, x1 = 0.0563 | 822.068 ± 0.24 | 1341.5 ± 1.6 | 7.476 ± 0.17
308.15 K, x1 = 0.1024 | 824.141 ± 0.24 | 1337.8 ± 1.6 | 6.95 ± 0.15
308.15 K, x1 = 0.1544 | 826.569 ± 0.24 | 1333.9 ± 1.6 | 6.449 ± 0.14
308.15 K, x1 = 0.2049 | 829.044 ± 0.24 | 1330 ± 1.6 | 5.981 ± 0.13
308.15 K, x1 = 0.2531 | 831.491 ± 0.24 | 1326.1 ± 1.6 | 5.619 ± 0.12
308.15 K, x1 = 0.3066 | 834.361 ± 0.24 | 1321.8 ± 1.5 | 5.215 ± 0.12
308.15 K, x1 = 0.4028 | 839.86 ± 0.24 | 1314.1 ± 1.5 | 4.618 ± 0.1
308.15 K, x1 = 0.5033 | 846.141 ± 0.24 | 1306 ± 1.5 | 4.088 ± 0.09
308.15 K, x1 = 0.6031 | 852.988 ± 0.24 | 1298.2 ± 1.5 | 3.601 ± 0.079
308.15 K, x1 = 0.7009 | 860.384 ± 0.24 | 1290.9 ± 1.5 | 3.195 ± 0.07
308.15 K, x1 = 0.8043 | 869.011 ± 0.24 | 1283.7 ± 1.5 | 2.808 ± 0.061
308.15 K, x1 = 0.8532 | 873.415 ± 0.24 | 1280.6 ± 1.5 | 2.609 ± 0.057
308.15 K, x1 = 0.8996 | 877.785 ± 0.24 | 1277.7 ± 1.5 | 2.453 ± 0.054
308.15 K, x1 = 0.9447 | 882.225 ± 0.24 | 1275.3 ± 1.5 | 2.295 ± 0.051
313.15 K, x1 = 0.0563 | 818.532 ± 0.24 | 1324.8 ± 1.6 | –
313.15 K, x1 = 0.1024 | 820.551 ± 0.24 | 1321.5 ± 1.6 | –
313.15 K, x1 = 0.1544 | 822.945 ± 0.24 | 1317.8 ± 1.5 | –
313.15 K, x1 = 0.2049 | 825.399 ± 0.24 | 1314.2 ± 1.5 | –
313.15 K, x1 = 0.2531 | 827.825 ± 0.24 | 1310.6 ± 1.5 | –
313.15 K, x1 = 0.3066 | 830.657 ± 0.24 | 1306.6 ± 1.5 | –
313.15 K, x1 = 0.4028 | 836.098 ± 0.24 | 1299.4 ± 1.5 | –
313.15 K, x1 = 0.5033 | 842.307 ± 0.24 | 1292 ± 1.5 | –
313.15 K, x1 = 0.6031 | 849.078 ± 0.24 | 1284.5 ± 1.5 | –
313.15 K, x1 = 0.7009 | 856.416 ± 0.24 | 1277 ± 1.5 | –
313.15 K, x1 = 0.8043 | 864.959 ± 0.24 | 1269.4 ± 1.5 | –
313.15 K, x1 = 0.8532 | 869.328 ± 0.24 | 1266.2 ± 1.5 | –
313.15 K, x1 = 0.8996 | 873.661 ± 0.24 | 1262.7 ± 1.5 | –
313.15 K, x1 = 0.9447 | 878.012 ± 0.24 | 1259.7 ± 1.5 | –
